Experimental data published in patent publication US20230265043A1, “CRYSTALLINE FORM OF PHENTERMINE HYDROCHLORIDE AND PROCESS FOR OBTAINING SAME” (priority 2020, published 2023).
Counter-ions that a name gives are not always drawn.

Tests used:
Type in all cases: physicochemical
[1] = dynamic water vapor adsorption (DVS) at 60%, 80% and 95% relative humidity; conditions: for gain by mass at 80% relative humidity: 25° C., equilibrium reached; for hygroscopicity classification according to the British Pharmacopoeia, Ed. 2016: based on mass gain at 80% relative humidity
Excerpt: (§1) In all humidity conditions, the equilibrium criterion of mass variation of less than 0.001% was reached.
FIG. 13 presents dynamic water vapor sorption experiments under different humidity conditions for the anhydrous and monohydrate forms of phentermine hydrochloride. It is noted that in all analyzed humidity conditions, the system reached equilibrium, with the monohydrate form being much less hygroscopic than the anhydrous form. Phentermine hydrochloride in anhydrous form has a gain of about 7.5% by mass at 80% relative humidity, being classified as hygroscopic according to the British Pharmacopoeia (BF) (British Pharmacopoeia, Ed. 2016), which can cause dosing problems if the active is manipulated in high humidity conditions. In addition, the fact that the anhydrous form is hygroscopic allows its conversion to the monohydrate form in case of exposure to excessive amounts of water.

[2] = DSC heating and X-ray diffraction after heating (conversion of monohydrate to anhydrous form); conditions: 10° C./min, nitrogen flow, XRD after heating at 60° C.
Procedure: (B), when it converts to anhydrous form.
(§2) The Differential Scanning calorimetry (DSC) experiment (FIG. 8) is performed under an inert atmosphere using nitrogen flow. Therefore, for phentermine hydrochloride monohydrate, such flow favors water loss, and the experiment will have underestimated results.
Furthermore, the melting of the anhydrous form occurs around 200° C. in which the active also starts the decomposition process.

[3] = dynamic water vapor desorption, relative humidity 95% to 0% at 25° C.; conditions: desorption 95% to 0% RH in steps of 5%, 25° C. (FIG. 9)
Procedure: as §1, §2

[4] = accelerated stability study in oven, 50° C. and 75% relative humidity, 30 days
Procedure: Phentermine hydrochloride monohydrate's stability was tested by keeping 25 g of sample in an oven under conditions of 50° C. and 75% relative humidity for 30 days, as recommended by the FDA guide (Food and Drug Administration, Guidance for Industry Q1A(R2) Stability Testing of New Drug Substances and Products, November 2003 rev.2).

Compound | gain by mass at 80% relative humidity ([1]; 80% relative humidity) | hygroscopicity classification according to the British Pharmacopoeia, Ed. 2016 [1] | temperature of conversion to the anhydrous form on heating [2] | relative humidity in which the form is stable [3] | times less hygroscopic than the anhydrous form ([1]; 80% relative humidity) | polymorphic conversion after accelerated stability test (infrared absorption and X-ray diffraction) [4]
CC(C)(N)Cc1ccccc1.Cl [2-methyl-1-phenylpropan-2-amine, reference compound] | about 7.5 % by mass | hygroscopic | – | – | – | –
CC(C)(N)Cc1ccccc1 [Phentermine hydrochloride monohydrate, phentermine hydrochloride monohydrate] | about 0.75 % by mass | slightly hygroscopic | above 50 °C | higher than 50% | 10 times | no polymorphic conversion
